These results are taken from patent US12606559B2, “JAK inhibitor compounds, methods for synthesizing same and use thereof” (GALDERMA HOLDING SA, priority 2020, dated 2026).

Where “and” joins values, the source holds several entries; their conditions need not be identical. Equal entries are not always repeated. Where two headings read alike, the source gives them in different places.

Data set [1] in a line: Kinetic aqueous solubility. The format is physicochemical.
Data set [2] can be described thus: Protein binding analysis (RED), mouse plasma. The format is in vitro ADME, male balb-c mice. To be noted: 5 μM, RED 4 h. On the procedure: (§1) The protein binding was assessed in plasma of Human, male balb-c mice, male Wistar Han rat, male Gottingen minipig by rapid equilibrium dialysis (RED) devices. After the plasma and buffer phosphate 50 mM pH7.4 were equilibrated at 37° C., the compound was added to plasma to reach a final concentration of 5 μM. An aliquot of plasma was withdrawn immediately. Equilibration under mild agitation was continued for 4 h. The plasma and buffer were sampled and samples were quenched with 4 volumes of acetonitrile and centrifuged. Supernatant was quantified in HPLC/MS/MS to calculate the recovery and the percentage of compound dissolved in the buffer (unbound) and bound to plasma proteins.

Data set [3] can be described thus: Intrinsic clearance in minipig hepatocytes. The data set is classed as in vitro ADME, male Göttingen minipig. To be noted: 2.5 μM. On the procedure: (§2) The intrinsic clearance was assessed in cryopreserved Hepatocytes obtained by Human livers donors of mix gender pooled together, male balb-c mouse, male Wistar Han rats and male Göttingen minipig, by looking at the parent compound disappearance. The incubations were performed using a final concentration of viable cells of 1 million/ml (viability above 70%) and test item of 2.5 μM. Incubations were followed up to 2 h. Aliquotes were withdrawn at different time points and reaction quenched with acetonitrile. After centrifugation the supernatant was analyzed by HPLC/MS to quantify the remaining amount of parent in comparison with time 0. The clearance was calculated by fitting the log of the percentage remaining with Graphpad Prism ver.7.

Data set [4] can be described thus: Human skin ex vivo: flux through skin and dermis concentration (Franz cells). The data set is classed as in vitro ADME. The settings on record: PG/H2O cream 1 mg/mL.
Another data set deals with 3T3 murine fibroblasts. Briefly: Phototoxicity, neutral red uptake. The format is cell-based. To be noted: 3T3 fibroblasts, 7 J/cm2 UVA/UVB. How it is done:
Phototoxicity was evaluated in 3T3 murine fibroblasts. Cells were incubated with different concentrations of test compounds. One plate was then exposed to a dose of 7 J/cm2 (UVA/UVB mimicking usual solar exposure) whereas the other plate was kept in the dark. The treatment medium was then replaced with culture medium and after 24 h cell viability was determined by Neutral red uptake. Concentration leading to 50% decrease of viability was calculated in the absence and in the presence of irradiation. The PIF (photo irritation factor) ratio was then calculated: […]).

For data set [5], the target named is T1, hERG (Human Ether-a-go-go Related Gene) channel in CHO-K1 cells (Homo sapiens, UniProt Q12809).
T1 construct: expressed in transfected cells; host or cells: CHO-K1
T1 sequence (Q12809 whole entry): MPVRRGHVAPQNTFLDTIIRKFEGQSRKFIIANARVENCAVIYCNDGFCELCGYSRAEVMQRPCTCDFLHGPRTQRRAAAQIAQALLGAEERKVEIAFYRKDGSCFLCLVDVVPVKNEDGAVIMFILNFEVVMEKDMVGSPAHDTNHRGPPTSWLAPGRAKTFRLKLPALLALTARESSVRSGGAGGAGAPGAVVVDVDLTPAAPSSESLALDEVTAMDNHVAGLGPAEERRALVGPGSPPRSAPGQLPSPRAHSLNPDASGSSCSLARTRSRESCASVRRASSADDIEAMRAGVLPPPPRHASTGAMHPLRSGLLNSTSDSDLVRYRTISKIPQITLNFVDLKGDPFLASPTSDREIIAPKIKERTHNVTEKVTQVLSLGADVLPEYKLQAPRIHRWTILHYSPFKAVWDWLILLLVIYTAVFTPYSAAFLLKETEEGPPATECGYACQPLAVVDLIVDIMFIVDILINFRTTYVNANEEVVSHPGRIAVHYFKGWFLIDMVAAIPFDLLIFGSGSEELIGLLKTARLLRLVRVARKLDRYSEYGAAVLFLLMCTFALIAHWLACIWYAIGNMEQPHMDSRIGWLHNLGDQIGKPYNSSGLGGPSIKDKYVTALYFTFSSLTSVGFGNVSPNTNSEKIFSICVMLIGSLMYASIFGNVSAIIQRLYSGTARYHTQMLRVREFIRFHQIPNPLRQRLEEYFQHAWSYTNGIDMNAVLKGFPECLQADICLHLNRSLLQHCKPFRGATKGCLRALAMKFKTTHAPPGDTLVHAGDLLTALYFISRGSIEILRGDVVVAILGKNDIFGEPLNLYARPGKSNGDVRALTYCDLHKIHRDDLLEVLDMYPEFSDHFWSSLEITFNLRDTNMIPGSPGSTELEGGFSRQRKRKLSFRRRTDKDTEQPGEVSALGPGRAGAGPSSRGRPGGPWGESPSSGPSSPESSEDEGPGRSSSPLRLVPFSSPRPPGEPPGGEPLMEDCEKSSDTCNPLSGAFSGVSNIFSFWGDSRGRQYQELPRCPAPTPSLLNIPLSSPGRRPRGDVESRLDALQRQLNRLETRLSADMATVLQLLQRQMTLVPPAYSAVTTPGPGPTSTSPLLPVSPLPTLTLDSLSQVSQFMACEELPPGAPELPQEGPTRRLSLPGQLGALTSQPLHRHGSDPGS
Briefly: In vitro hERG channel, whole cell patch clamp. The data set is classed as cell-based. The settings on record: up to 30 μM. How it is done:
Blockade of the delayed rectifier potassium current (IKr) encoded by hERG gene (human ether a go go-related gene) can lead to QT interval prolongation and is therefore investigated as part of the cardiac risk assessment. This channel is critical for the repolarisation of the cardiac membrane. The effect of the compounds on IKr was assessed by whole cell patch clamp in stably transfected CHO-K1 cells expressing hERG (Human Ether-a-go-go Related Gene) channel following superfusion at different concentrations up to 30 μM.
On the technique in general: hERG is a cardiac potassium channel; its block is linked to QT prolongation.

A short description of data set [6]: Protein binding analysis (RED), minipig plasma. The data set is classed as in vitro ADME. The settings on record: male, Gottingen, pH 7.4, RED 4 h, read-out: minipig FU. How it is done: as §1
For data set [7], the system named is 44 targets (binding and enzyme/uptake assays). Briefly: CEREP Safety Screen-44. How it is done: An in vitro pharmacology assay was conducted to assess the capability of the compounds to interact with different pharmacological targets when tested at 10 μM in different binding and enzyme/uptake assays. The included targets are indicative of potential effects in major organs and drug-drug interactions.
Compound binding was calculated as a % inhibition of the binding of a radioactively labelled ligand specific for each target. […] […].

Data set [8] can be described thus: Intrinsic clearance in rat hepatocytes. The data set is classed as in vitro ADME, male Wistar Han rats. To be noted: 2.5 μM. How it is done: as §2
Another data set relates to IL6 signalling in hWB. Briefly: hWB assay, IL6. The format is cell-based, human. The settings on record: human whole blood; read-out: hWB assay: IC50 IL6.
Another data set can be described thus: Chrom logD pH 7.4. The format is physicochemical.
In another data set the target is T2, CYP3A4 (Homo sapiens, UniProt P08684).
T2 construct: assessed in Human pooled liver microsomes of mixed gender; from tissue; host or cells: human pooled liver microsomes
T2 sequence (P08684 2-503): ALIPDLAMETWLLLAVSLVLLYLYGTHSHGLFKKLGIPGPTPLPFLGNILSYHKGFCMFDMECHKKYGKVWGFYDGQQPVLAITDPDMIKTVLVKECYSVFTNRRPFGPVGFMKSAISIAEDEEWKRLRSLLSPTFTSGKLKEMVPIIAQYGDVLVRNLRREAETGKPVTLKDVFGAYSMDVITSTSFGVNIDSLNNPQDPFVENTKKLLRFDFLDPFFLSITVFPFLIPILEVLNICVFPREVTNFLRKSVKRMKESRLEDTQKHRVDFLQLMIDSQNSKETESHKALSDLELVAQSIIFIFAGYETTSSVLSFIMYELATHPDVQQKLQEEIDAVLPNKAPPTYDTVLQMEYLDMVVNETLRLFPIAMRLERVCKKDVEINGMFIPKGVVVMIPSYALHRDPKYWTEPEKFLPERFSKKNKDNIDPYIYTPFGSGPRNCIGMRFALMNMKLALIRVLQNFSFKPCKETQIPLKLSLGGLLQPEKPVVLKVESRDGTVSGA
Briefly: CYP3A inhibition in human liver microsomes. The data set is classed as in vitro ADME. Background: Liver microsomes are a subcellular fraction often used to study metabolism.

For data set [9], the system named is IL-6 induced Phospho-STAT3 (Tyr705) in TF-1 cells. Briefly: In vitro cellular pSTAT3 assay, IL-6 stimulated TF-1 cells. The data set is classed as cell-based. The settings on record: Homo sapiens.
The target of a further data set is T3, CYP2D6 (Homo sapiens, UniProt P10635).
T3 construct: assessed in Human pooled liver microsomes of mixed gender; from tissue; host or cells: human pooled liver microsomes
T3 sequence (P10635 whole entry): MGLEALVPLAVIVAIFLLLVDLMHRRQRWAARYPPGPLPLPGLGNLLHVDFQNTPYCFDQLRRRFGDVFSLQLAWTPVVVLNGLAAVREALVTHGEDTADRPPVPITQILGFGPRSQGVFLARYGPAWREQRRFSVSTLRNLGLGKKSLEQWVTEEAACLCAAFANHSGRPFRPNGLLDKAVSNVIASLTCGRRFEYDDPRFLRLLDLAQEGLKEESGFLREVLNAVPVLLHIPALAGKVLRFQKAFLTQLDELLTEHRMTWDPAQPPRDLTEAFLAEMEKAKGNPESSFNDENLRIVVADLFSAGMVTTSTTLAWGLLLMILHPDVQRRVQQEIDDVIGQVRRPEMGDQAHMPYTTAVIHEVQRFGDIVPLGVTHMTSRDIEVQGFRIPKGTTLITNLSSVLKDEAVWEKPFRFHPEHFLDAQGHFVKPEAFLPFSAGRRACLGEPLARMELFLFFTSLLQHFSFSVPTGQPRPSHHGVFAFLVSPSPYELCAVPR
Briefly: CYP2D6 inhibition in human liver microsomes. The settings on record: dextromethorphan. The data set is classed as in vitro ADME. How it is done:
After 5 min at 37° C. incubations were started with NADPH and prolonged for 10 min. The test compound was tested up to 30 μM keeping the final concentration of organic solvent was below 0.5%. The final concentration of microsomes was 0.1 mg/ml to ensure linearity during the time of the incubation. The reaction was quenched by adding 3 volume of acetonitrile. After centrifugation the supernatant was analyzed by HPLC/MS/MS for the formation of des-methyldextromethorphane selectively produced by CYP2D6 and 1′hydroxymidazolam or 6β-hydroxytestosterone, selectively produced by CYP3A. IC50 was calculated with Graphpad Prism v.7 comparing the amount of metabolite produced in presence of the test compound with that produced in absence of test item.

Data set [10] is described as follows: In vivo pharmacokinetic analysis in minipig, iv. More on the design: species or system male Göttingen minipigs. To be noted: iv 1 mg/kg; for clearance: male, Göttingen, minipig, whole blood, blood, read-out: iv PK minipig: Cl. How it is done:
Three male Göttingen minipigs. Compound was administered intravenously to fed animals at a target dose of 1 mg/kg, dose volume 1 mL/kg, in DMSO: hydroxypropyl-β-cyclodextrin 20% in phosphate buffer 60 mM pH 7 (5:95). Blood samples were collected at various time points. Blood samples were then assayed using a method based upon protein precipitation with acetonitrile followed by LC/MS/MS analysis. Non-compartmental methods were used for pharmacokinetic analysis of blood concentration versus time data.

The nature of data set [11]: Thermodynamic solubility PG_H2O pH 6 2/8. The settings on record: PG/H2O 2/8, pH 6. The format is physicochemical.
Data set [12] is described as follows: Protein binding analysis (RED), rat plasma. To be noted: 5 μM, RED 4 h. The data set is classed as in vitro ADME, male Wistar Han rat. On the procedure: as §1
A short description of data set [13]: Protein binding analysis (RED), human plasma. The data set is classed as in vitro ADME. The settings on record: 5 μM, RED 4 h. How it is done:
as §1

A short description of data set [14]: Intrinsic clearance in mouse hepatocytes. The settings on record: 2.5 μM. The data set is classed as in vitro ADME, male balb-c mouse. How it is done:
as §2

A further data set deals with panel of 403 kinases. Briefly: Kinase selectivity scores S35 / S1 @ 10 μM (403 kinases). The data set is classed as binding.
[15] abbreviates: midazolam, read-out: IC50 CYP3A4 mid.
The mark [16] stands for this setting: testosterone, read-out: IC50 CYP3A4 testo.
[17] abbreviates: TF-1, cellular assay IL6, read-out: Free IC50.
Where [18] appears, read: TF-1 cells, IL-6 100 ng/ml, pSTAT3, read-out: Cellular Assay: IC50 IL6.

As a reminder, the IC50 is the concentration needed to halve the response being measured. One may read the chromatographic logD as a lipophilicity value derived from retention on a column. A high value points to a more lipophilic compound. `CC1(C)CCN(C(=O)C[C@H]2C[C@@H](Nc3c(C#N)cnc4[nH]ccc34)C2)CC1` [Compound A, 4-(((cis)-3-(2-(4,4-dimethylpiperidin-1-yl)-2-oxoethyl)cyclobutyl)amino)-1H-pyrrolo[2,3-b]pyridine-5-carbonitrile] showed a Kinetic aq sol in data set [1] of 15 µM. In [2], the mFU is given as 5.2%. Further, the “Intr. Clear. minipig heps” value in data set [3] was over 300 microL/min/10 6 cells. In addition, in data set [4], the dermis concentration was 0.25 µM. In addition, in data set [4], the “measured flux 6-24 hr” value was 2.5 ng/cm^2/hr. The Phototox entry with 3T3 murine fibroblasts is recorded as “Neg/Neg”. Besides, the IC50 in data set [5] is over 30 µM; in the data set with IL6 signalling in hWB, 1.3 µM; at CYP3A4 (setting [15]), 3.6 µM; on CYP3A4 (setting [16]) it was 1.5 µM; in data set [9] (setting [17]) it was 0.367 µM; in data set [9] (setting [18]) it was 0.011 µM. The same compound yielded an IC50 against CYP2D6 of 25 µM. Moreover, the fraction unbound at 4 h, 5 μM in data set [6] was 0.1. For the same compound, the “Safety panel (Cerep): 44 targets % inh @ 10 microM, Nb of targets > 50% inh” value in data set [7] (10 microM) was 1/44. Besides, the “Intr. Clear. rheps” value in [8] is over 152 microL/min/10 6 cells. In the data set “Chrom logD pH 7.4”, the chromatographic logD was determined as 2.7. Besides, the “iv PK minipig: Cl (value in brackets, %)” value in data set [10] amounted to 111%. For the same compound, the clearance in data set [10] stood at 31 mL/min/kg. In addition, in [11], the “Thermodynamic sol PG_H2O pH 6 2/8” value was 454 microM and 0.17 mg/mL. This compound gave a rFU in data set [12] of 3.6%. Moreover, in data set [13], the hFU is 4.4%. Moreover, in data set [14], the “Intr. Clear. mheps” value was determined as 215 microL/min/10 6 cells. For the same compound, in the data set on panel of 403 kinases, the “Selectivity @ 10 μM: number of kinases out of 403” value is on record as 24/403.

Regarding `CC1CCN(C(=O)C[C@H]2C[C@@H](Nc3c(C#N)cnc4[nH]ccc34)C2)CC1` [Compound B, 4-(((cis)-3-(2-(4-Methylpiperidin-1-yl)-2-oxoethyl)cyclobutyl)amino)-1H-pyrrolo[2,3-b]pyridine-5-carbonitrile], in data set [1], the Kinetic aq sol stood at 35 µM. Moreover, the mFU in data set [2] was determined as 5.1%. In [3], the “Intr. Clear. minipig heps” value is 248 microL/min/10 6 cells. The dermis concentration in data set [4] worked out at 0.9 µM. Further, in data set [4], the “measured flux 6-24 hr” value worked out at 2.4 ng/cm^2/hr. For the same compound, the Phototox entry in the data set with 3T3 murine fibroblasts is “Neg/Neg”. Further, the IC50 in data set [5] is over 30 µM; with IL6 signalling in hWB, 6.9 µM; on CYP3A4 (setting [15]), 9.4 µM; on CYP3A4 (setting [16]), 5.6 µM; in [9] (setting [17]), 0.275 µM; in data set [9] (setting [18]), 0.011 µM. The compound further displayed an IC50 at CYP2D6 of 25 µM. In data set [6], the fraction unbound at 4 h, 5 μM was 0.083. For the same compound, the “Safety panel (Cerep): 44 targets % inh @ 10 microM, Nb of targets > 50% inh” value in data set [7] (10 μM) was 0/44. Besides, the “Intr. Clear. rheps” value in [8] amounted to 134 microL/min/10 6 cells. Also, the chromatographic logD in the data set “Chrom logD pH 7.4” came to 2.2. For the same compound, the “iv PK minipig: Cl (value in brackets, %)” value in data set [10] worked out at 97%. For the same compound, the clearance in data set [10] stood at 27 mL/min/kg. For the same compound, in data set [11], the “Thermodynamic sol PG_H2O pH 6 2/8” value was 223 microM and 0.08 mg/mL. Moreover, the rFU in [12] is given as 2.8%. For the same compound, the hFU in [13] is 5.6%. In addition, the “Intr. Clear. mheps” value in [14] was over 300 microL/min/10 6 cells. For the same compound, in the data set with panel of 403 kinases, the “Selectivity @ 10 μM: number of kinases out of 403” value is on record as 19/403.
